Measured values published in PMC10887214 (Biomedicines, 2024).

What was measured:
C57BL/6J mice [1] = experiment: Morris Water Maze (MWM); assay type: in vivo, mouse; conditions: i.p., WIN 0.5 mg/kg
Description: (§1) Animal housing. Forty-eight Male C57BL/6J mice were purchased from Janvier Labs (Le Genest-Saint-Isle, France) and were time-specifically housed in a 12 h light-dark cycle (lights on at 7 am), with ad libitum water and food in conditioned rooms (22 °C, humidity ~60%).
(§2) Behavior assays. All mice were subjected to a behavioral test battery that consisted of several general performance tasks of locomotor activity, exploratory and anxiety-like behavior, and learning and memory. Mice were divided into four groups: Vehicle, OS (2 mg/kg), WIN55 (0.5 mg/kg), or OS + WIN. Each group consisted of 7–14 mice that received two i.p injections before each test, with a 10 min interval between each injection. Veh + Veh were injected with PBS. Veh + WIN were injected with PBS and WIN55. Veh + OS were injected with PBS and OS. OS + WIN were injected with OS and WIN55. PBS was used as vehicle as it was used for dilution of drugs. Tests were performed in the order described below after 10 min of the last injection, with a 24 h interval between each test.
Morris Water Maze (MWM): MWM [32] was used to assess the effects of OS, WIN, and OS + WIN in memory one day after the EPM test. MWM is a gold standard test to assess learning and memory consisting of 10 days of training and two probe trials in a pool with water at a temperature of 26 °C, with one submersed platform invisible to mice. Each mouse could try to find the platform for 100 s, four times per day, with an inter-trial interval of 15–30 min. In each trial, animals were released randomly from each of the four starting positions. This protocol of training was repeated for ten days (training sessions). The platform was removed on the 6th and 11th days, and the animals were left free to swim for 100 s (probe trials). Right after the first probe trial (day 6), animals were trained again with the platform at the same place. During the training sessions, the mean latency to find the platform for the session was calculated for each animal as the average of the four trials of the day. During the probe trials, the pool was divided into four equal virtual quadrants, and the time spent in the target quadrant (TQ) (i.e., the quadrant where the platform was located during the training sessions) was assessed as a measure of memory retention. For this test, we used Veh (n = 9), OS (n = 8), WIN (n = 8), OS + WIN (n = 14).

chimeric CB1/2 receptor = experiment: Two-electrode voltage-clamp, chimeric CB1/2-GIRK1/GIRK2-RGS4 coupling system expressed in oocytes; conditions: WIN55,212-2 concentration–response
C57BL/6J mice [2] = experiment: Home cage activity test; assay type: in vivo, mouse; conditions: i.p., OS 2 mg/kg, WIN 0.5 mg/kg, 21 h
Description: as §1, §2
Cage activity assessment: At P60, animals were moved to the cage activity room for one hour before injections for habituation.. The cage activity assessment consists of placing the mice in a transparent box which is placed between three infrared sensors (two on the cage’s side and one in its front) that count how many times the mice cross the infrared beams. The times of beams crossed in each 30 min were counted over a period of 24 h and used as a locomotor activity measurement. In addition, we also compared the total number of beams crossed during the day and night period. For this test, we used Veh (n = 10), OS (n = 9), WIN (n = 11), OS + WIN (n = 8).

C57BL/6J mice [3] = experiment: Open Field (OF); assay type: in vivo, mouse; conditions: i.p., WIN 0.5 mg/kg
Description: as §1, §2
Open Field (OF): One day after the cage activity test, mice were tested in the OF paradigm. The OF aimed to test the OS, WIN, and OS + WIN effect on animal locomotion and exploratory behavior. Animals were placed in the test room one hour before starting the test. For the OF, animals were placed in a plexiglass box (60 × 60 × 60 cm) divided into three zones (center, periphery, and corners) for 10 min and left free to explore. Total distance and time in zones were counted. Here, more time in the center meant an anxiolytic effect, and a higher distance walking meant an increase in locomotor activity. For this test, we used Veh (n = 8), OS (n = 10), WIN (n = 7), OS + WIN (n = 8).

Compound: Cc1c(C(=O)c2cccc3ccccc23)c2cccc3c2n1[C@H](CN1CCOCC1)CO3 [WIN55,212-2, reference compound]
- Time to find the platform in training sessions vs control (C57BL/6J mice [1]; OS 2 mg/kg, days 3, 4, 5, 6 and 8): performed significantly worse than the control
- Time spent in the target quadrant (TQ), first probe trial (C57BL/6J mice [1]): ~ 25%
- Receptor activation (chimeric CB1/2 receptor): activated by WIN55,212-2 in a concentration-dependent manner
- Cage activity (beam crossings) 2 h after the beginning of night phase (C57BL/6J mice [2]): did not change the activity
- Total distance walked in open field (locomotion) (C57BL/6J mice [3]; OS 2 mg/kg, 10 min test): neither OS nor WIN affected locomotion
- Time spent in the periphery of open field compared to the control (C57BL/6J mice [3]): spent less time in the periphery
